Experiments:
human whole blood [1] = format: cell-based; design: key to IL-1 / IFNγ / Neopterin / TNF / IL-6 / IL-8 / IL-2 / STL-2R / SCD8 / IL-10 / IL-4: index relative to medium control = 100; details: for IFNγ / IL-1 / IL-2 / IL-4 / IL-6 / IL-8 / IL-10 / Neopterin / SCD8 / STL-2R / TNF: blood from 5 normal humans, highest value at any time or concentration, related to medium control given the value 100
Protocol: (§1) Five healthy blood donors from both sexes ranging in age between 25 and 55 years are used. Blood is collected by venous puncture into endotoxin free heparin tubes (Coatech, Ljungby, Sweden) that contains 120 IU heparin and are filled with 4 ml of blood. None of the blood donors are allowed to have a history of allergy or atopic excema or any indication of ongoing disease of any kind.
(§2) 100 ul of blood is added to the wells of Nunclon microtiter plates.
(§3) For substances to be tested for effects in the system different concentration are added to the blood. The highest concentration of the substance being non toxic to the cells indicated by inspection in microscopic in presence of vital stain e.g. trypan blue is used as start concentration.
(§4) The microtiter plates are incubated at 37° C. at 90% humidity and with 5% CO2. An appropriate number of identical plates are prepared and are taken out of the incubator for testing at intervals of, 1 day, 2 days and 6 days.
Another set of plates is prepared with the same design as in “Culture protocol” above. Cytokines released from the cultured cells are measured in the supernatants obtained after centrifugation of the plates at 650 g for 10 minutes. The supernatants were either tested immediately or stored at −20° C. until tested.
The instructions of the manufacturers were followed. All these tests are enzyme immunoassays (EIA:s). The principle is that microtiter plate wells are labeled with a cytokine specific capture antibody. If cytokine is present in the samples added to the wells it will be captured to the bottom of the well. […] The reaction is thereafter measured as colour developed after addition of a substrate for the enzyme. The values for the test wells is compared with a standard curve obtained by adding a series of known amounts of cytokine. The values obtained for control wells with no substance added are used as background values for cytokine levels and proliferation as measured by ^3H-thymidin incorporation. Positive indications are recorded when values above 2 SD of the variation of the controls are obtained.
(§5) The highest value as compared to medium control obtained at any time or concentration for each substance is used as indicator value in the table and related to medium control put to value 100 index.

human whole blood [2] = experiment: Proliferation assay, 3H-thymidine incorporation in diluted whole blood cultures; format: cell-based; details: for Prolif. Index (3H-Thymidine Proliferation): blood from 5 normal humans, highest value at any time or concentration, related to medium control given the value 100; for proliferative response (in words): summary of results, 3H-thymidine incorporation
Protocol: as §1, §2, §3, §4
One set of plates is used to estimate the proliferative activity of the donor cells spontaneously (=medium or substance dissolved controls); in response to PHA, and in response to samples of test substances at various concentrations. The highest concentration of sub-stance non toxic to the cells indicated by inspection in microscope in presence of vital stain (e.g. trypan blue) is used as start concentration. Ser. dilutions of the sub-stance is then performed as stated above.
The plates were incubated for additional 4 hours at 37° C. The cells were then collected using a Skatron cell harvester (Skatron, Lier, Norway) and Titertek paper filters. The result of his procedure is that the DNA of the cells is stuck in the filter paper, whereas the ^3H-thymidin not incorporated in the DNA passes through the filter and goes with the waste washing water. The radioactivity in the filter papers is thus proportional to the DNA synthesis that occured during the 4 hours preceding the harvesting procedure. The radiactivity of the filter papers is determined in a Packard liquid scintillation counter, and thymidine incorporation was expressed as counts per minute (cpm).
as §5

[3] = summary of results, secreted into supernatants

Compound: Triton X-100
- IFNγ (human whole blood [1]): 120
- IL-1 (human whole blood [1]): 630
- IL-2 (human whole blood [1]): 85
- IL-4 (human whole blood [1]): 85
- IL-6 (human whole blood [1]): 460
- IL-8 (human whole blood [1]): 200
- IL-10 (human whole blood [1]): 95
- Neopterin (human whole blood [1]): 110
- SCD8 (human whole blood [1]): 95
- STL-2R (human whole blood [1]): 115
- TNF (human whole blood [1]): 400
- predicted adverse reaction from cytokine pattern (in words) (human whole blood [1]; interpretation of the cytokine profile): positive tissue irritant
- unspecific inflammatory / tissue toxic group cytokines induced (in words) (human whole blood [1]; [3]): IL-1, IL-6 and TNF
- Prolif. Index (3H-Thymidine Proliferation) (human whole blood [2]): 200
- proliferative response (in words) (human whole blood [2]): induced proliferation

Compound: [Cl][Ni][Cl] [IV, Nickel chloride]
- IFNγ (human whole blood [1]): 1220
- IL-1 (human whole blood [1]): 1165
- IL-2 (human whole blood [1]): 445
- IL-4 (human whole blood [1]): 80
- IL-6 (human whole blood [1]): 660
- IL-8 (human whole blood [1]): 380
- IL-10 (human whole blood [1]): 800
- Neopterin (human whole blood [1]): 90
- SCD8 (human whole blood [1]): 110
- STL-2R (human whole blood [1]): 130
- TNF (human whole blood [1]): 225
- Neopterin induction (in words) (human whole blood [1]; [3]): no Neopterin
- immune lymphocyte class / specific immune response cytokines induced (in words) (human whole blood [1]; [3]): IFN-gamma, IL-2 and IL-10
- unspecific inflammatory / tissue toxic group cytokines induced (in words) (human whole blood [1]; [3]): IL-1, IL-6, TNF and IL-8
- Prolif. Index (3H-Thymidine Proliferation) (human whole blood [2]): 1340
- proliferative response (in words) (human whole blood [2]): low proliferative response

Compound: phytohemagglutinin [Plus]
- IFNγ (human whole blood [1]): 800
- IL-1 (human whole blood [1]): 690
- IL-2 (human whole blood [1]): 750
- IL-4 (human whole blood [1]): 820
- IL-6 (human whole blood [1]): 1620
- IL-8 (human whole blood [1]): 780
- IL-10 (human whole blood [1]): 1250
- Neopterin (human whole blood [1]): 440
- SCD8 (human whole blood [1]): 940
- STL-2R (human whole blood [1]): 1820
- TNF (human whole blood [1]): 420
- immune lymphocyte class / specific immune response cytokines induced (in words) (human whole blood [1]; [3]): neopterin, IFN-gamma IL-2 and IL-4 and IL-10
- unspecific inflammatory / tissue toxic group cytokines induced (in words) (human whole blood [1]; [3]): IL-1, IL-6, TNF and IL-8
- Prolif. Index (3H-Thymidine Proliferation) (human whole blood [2]): 2600
- proliferative response (in words) (human whole blood [2]): strong proliferative response

From patent USRE38423E1, “Process for in vitro analysis of toxic and allergenic substances” (Biovator Technologies AB, priority 1995, dated 2004)
